Key:
[1] = system: corneal endothelial cells; experiment: VIP treatment of mice after trigeminal axotomy: corneal endothelial cell density (immunofluorescence, ZO-1 staining); type: in vivo, BALB/c mice; details: daily intraperitoneal VIP 5 nM in 10 μL, day 14, versus saline
Method: (§1) Six- to eight-week old male BALB/c mice (Charles River, Wilmington, Mass.) were used in these experiments. Trigeminal axotomy was performed by first anesthetizing the animals with a ketamine (100 mg/mL)/xylazine (20 mg/mL)/acepromazine (15 mg/mL) mixture. After anesthetization, small incision lateral canthotomy was performed, two tractional sutures were placed on the lid skin, and the conjunctival fornix were incised circumferentially around 90 degrees. The eye globe was rotated nasally by gently pushing the nasal fornix with blunt forceps, exposing the trigeminal nerve and minimizing intraoperative bleeding through mild elevation of the intraorbital pressure. The ophthalmic branches of the trigeminal nerve were cut at the posterior sclera close to the optic nerve with sharp forceps. After cutting the branches of the trigeminal nerve, the skin was sutured using 8-0 nylon. Tarsorrhaphy was performed to reduce the risk of infection and exposure keratitis in the mice. Finally, an antibiotic ointment (bacitracin-neomycin-polymyxin mixture) was applied to the sutured area and the treated eye in the mice. Fluxinin (0.25 mg /kg body weight) was administered every 12 hours for 24 hours by subcutaneous injection. […]
Corneal endothelial cells were counted using cell counter plug-ins with ImageJ software (NIH, Bethesda, Md.). […] The results are expressed as mean±SEM, and considered significant if p<0.05.

cornea = experiment: VIP treatment of mice after trigeminal axotomy: corneal thickness by AS-OCT; type: in vivo, BALB/c mice; details: daily intraperitoneal VIP 5 nM in 10 μL, day 14, AS-OCT, versus saline
Method: as §1, with “mice.” for “mice. Fluxinin (0.25 mg /kg body weight) was administered every 12 hours for 24 hours by subcutaneous injection.”
Normal and post-operative cornea were examined using anterior segment optical coherence tomography (AS-OCT, RTVue, Optoview, Inc., Fremont, Calif.) at 7, 14 and 21 days after the surgical procedure. […] The corneal thickness was measured using built-in software. […]

Substance: vasoactive intestinal peptide [VIP]
- corneal endothelial cell density [1]: didn't decrease
- corneal thickness (cornea): remained within the normal ranged
